Data reported in a compilation of properties of binary mixtures (doi:10.1016/j.molliq.2022.119052).

Assay: xn = mol fraction of the nth substance listed
Details: 100 kPa, x1 = 0.333

viscosity (298.15 K) [mPa·s] | viscosity (313.15 K) [mPa·s] | viscosity (323.15 K) [mPa·s] | viscosity (333.15 K) [mPa·s] | viscosity (303.15 K) [mPa·s] | Structure (SMILES)
79.9 | 45.3 | 32 | 23 |  | CCn1cc[nH+]c1.[Cl-] + OCC(O)CO
156.4 | 85.1 | 58.5 | 41.2 |  | CC[n+]1ccn(C)c1.[Cl-] + OCC(O)CO
 |  | 49.1 |  | 103.1 | Cn1cc[nH+]c1.[Cl-] + OCC(O)CO
